Five compounds from patent publication US20100120715A1, “BETA-LACTAMASE INHIBITORS” (priority 2007, published 2010) can be followed below.

Like-named read-outs stand apart in the source and are kept apart here. Where only a bound is given, the exact number is not on record here.

One experiment concerns the target T1, Class C P99 AmpC (Enterobacter cloacae, UniProt P05364).
T1 construct: made in house; host or cells: E. coli BL21(DE3)
The format is biochemical. To be noted: purified enzyme; nitrocefin 100 μM, PBS pH 7.0; read-out: P99 AmpC IC50 Range. The gist of the method:
(§1)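 Native untagged enzymes were expressed in E. coli BL21(DE3) and purified by cation exchange and gel filtration. Compound series (100–0.005 μM in PBS pH 7.0, before addition of an equal enzyme volume) were preincubated with enzyme 10 min at 37°C. Nitrocefin (100 μM final) hydrolysis was read kinetically at 486 nm for 10 min, and IC50 was taken as 50% reduction of initial rate versus no-inhibitor wells.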

Experiment [1] relates to K. pneumoniae expressing the Class A carbapenemase KPC-2. Description: microbe, parasite or virus in culture. To be noted: in the presence of fixed 8 μg/mL Ceftazidime.
The next experiment deals with T2, Class A ESBL CTXM-15 (Escherichia coli, UniProt Q9EXV5).
T2 construct: made in house; host or cells: E. coli BL21(DE3)
T2 sequence (Q9EXV5 entry or part of it): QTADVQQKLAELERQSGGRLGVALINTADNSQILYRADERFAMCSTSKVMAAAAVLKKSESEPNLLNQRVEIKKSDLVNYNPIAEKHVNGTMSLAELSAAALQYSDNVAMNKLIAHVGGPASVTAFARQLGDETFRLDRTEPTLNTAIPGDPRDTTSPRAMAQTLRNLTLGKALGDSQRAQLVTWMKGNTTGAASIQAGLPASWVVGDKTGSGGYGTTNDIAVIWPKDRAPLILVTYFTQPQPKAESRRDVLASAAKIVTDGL
Nature of the experiment: β-lactamase enzyme inhibition (nitrocefin hydrolysis), CTXM-15. As to conditions: purified enzyme; nitrocefin 100 μM, PBS pH 7.0; read-out: CTXM-15 IC50 Range. The format is biochemical. The gist of the method:
as §1

Experiment [2] concerns the target T3, Class A carbapenemase KPC-2 (Klebsiella pneumoniae, UniProt Q9F663).
T3 construct: made in house; host or cells: E. coli BL21(DE3)
Description: β-lactamase enzyme inhibition (nitrocefin hydrolysis), KPC-2. The class given is biochemical. As to conditions: purified enzyme; nitrocefin 100 μM, PBS pH 7.0; read-out: KPC-2 IC50 Range. The method in brief:
as §1

Experiment [3] concerns K. pneumoniae expressing the Class A ESBL CTX-M-15. Description: microbe, parasite or virus in culture. The class given is cell-based. To be noted: in the presence of fixed 8 μg/mL Ceftazidime.
A further experiment deals with T4, Class A ESBL SHV-5 (Klebsiella pneumoniae, UniProt P0A3M1).
T4 construct: made in house; host or cells: E. coli BL21(DE3) for purified enzyme; E. coli cells containing SHV-5 for extracts
T4 sequence (P0A3M1 22-286): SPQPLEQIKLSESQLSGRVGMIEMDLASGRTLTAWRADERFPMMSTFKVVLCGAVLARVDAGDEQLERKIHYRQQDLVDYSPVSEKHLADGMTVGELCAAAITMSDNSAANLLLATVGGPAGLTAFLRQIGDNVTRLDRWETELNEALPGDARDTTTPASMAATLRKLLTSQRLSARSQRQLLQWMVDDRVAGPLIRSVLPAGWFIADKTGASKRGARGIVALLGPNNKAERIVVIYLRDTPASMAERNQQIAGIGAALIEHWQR
The class given is biochemical, E. coli. As to conditions: nitrocefin 100 μM, PBS pH 7.0, read-out: SHV-5 IC50 Range.

Experiment [4] has as its system E. cloacae expressing the Class C P99+ AmpC. Description: microbe, parasite or virus in culture. The class given is cell-based. As to conditions: in the presence of fixed 8 μg/mL Ceftazidime. The method in brief: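 Broth microdilution potentiation assay in cation-adjusted Mueller Hinton broth: compound was titrated 8 to 0.015 μg/mL final against a fixed 8 μg/ml cephalosporin. Strains were pre-grown 3-5 h with 50 μg/mL ampicillin and inoculated per CLSI. MIC was read visually after 16-20 h at 37° C.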

Experiment [5] relates to E. coli expressing the Class A ESBL SHV-5. Nature of the experiment: microbe, parasite or virus in culture. The class given is cell-based. As to conditions: in the presence of fixed 8 μg/mL Ceftazidime.
The mark [6] stands for this setting: purified beta-lactamase enzyme (Examples 1 and 31-64).
Setting [7] is: cellular extracts of E. coli containing SHV-5 (Examples 2-30).

T3 sequence (Q9F663 25-293 limits assumed): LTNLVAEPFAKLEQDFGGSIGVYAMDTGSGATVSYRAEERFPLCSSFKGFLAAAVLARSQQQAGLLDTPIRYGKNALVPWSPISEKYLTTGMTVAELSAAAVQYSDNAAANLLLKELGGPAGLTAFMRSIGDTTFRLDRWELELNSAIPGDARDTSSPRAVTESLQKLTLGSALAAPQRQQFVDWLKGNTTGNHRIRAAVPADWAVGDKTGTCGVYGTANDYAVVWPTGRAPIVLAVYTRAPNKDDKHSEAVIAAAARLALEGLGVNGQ
T1 sequence (P05364 21-381): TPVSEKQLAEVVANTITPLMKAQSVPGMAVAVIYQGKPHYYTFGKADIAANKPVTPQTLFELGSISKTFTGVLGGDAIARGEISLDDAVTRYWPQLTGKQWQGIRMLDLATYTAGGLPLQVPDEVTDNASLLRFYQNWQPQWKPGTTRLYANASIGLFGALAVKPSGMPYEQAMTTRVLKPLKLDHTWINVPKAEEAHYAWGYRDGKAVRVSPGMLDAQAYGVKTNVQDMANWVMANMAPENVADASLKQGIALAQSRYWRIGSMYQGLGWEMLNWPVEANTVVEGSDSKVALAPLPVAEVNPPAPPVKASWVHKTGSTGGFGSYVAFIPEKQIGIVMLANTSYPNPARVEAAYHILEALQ

The IC50 is the midpoint of a concentration-inhibition curve. On to `Nc1nc(CC(=O)N[C@@H](Cc2cccc(C(=O)O)c2O)B(O)O)cs1.O=CO` [Example 39, (1R)-1-(2-Amino-thiazol-4-yl)-acetylamino-1-(3-carboxy-2-hydroxy)benzyl-methylboronic acid formate salt], for which the IC50 on Class C P99 AmpC was less than 10 nM; at Class A ESBL CTXM-15 it was less than 10 nM; in experiment [2] it was 100 to 1000 nM; at Class A ESBL SHV-5 (setting [6]), less than 10 nM. The “MIC of example compound, K. pneumoniae KPC-2 + 8 μg/mL CAZ” value (“MIC … K. pneumoniae KPC-2 + 8 μg/mL CAZ” below) in experiment [1] is listed as “C (C represents an MIC of <1 μg/mL)”. In addition, in experiment [3], the “MIC of example compound, K. pneumoniae CTX-M-15 + 8 μg/mL CAZ” value (“MIC … K. pneumoniae CTX-M-15 + 8 μg/mL CAZ” for short) was “C (C represents an MIC of <1 μg/mL)”. Besides, the “MIC of example compound, E. cloacae P99 AmpC + 8 μg/mL CAZ” value (“MIC … E. cloacae P99 AmpC + 8 μg/mL CAZ” for short) in experiment [4] is listed as “C (C represents an MIC of <1 μg/mL)”. Also, the “MIC of example compound, E. coli SHV-5 + 8 μg/mL CAZ” value (from here on “MIC … E. coli SHV-5 + 8 μg/mL CAZ”) in experiment [5] was “C (C represents an MIC of <1 μg/mL)”.

`Cl.O=C(Cc1ccncc1)N[C@@H](Cc1cccc(C(=O)O)c1O)B(O)O` [Example 52, (1R)-1-(4-Pyridylacetylamino)-2-(2-hydroxy-3-carboxyphenyl)ethyl-1-boronic acid hydrochloride]: the IC50 (at Class C P99 AmpC; on Class A ESBL CTXM-15; in experiment [2]; at Class A ESBL SHV-5 (setting [6])) was less than 10 nM in each case. Besides, the “MIC … K. pneumoniae KPC-2 + 8 μg/mL CAZ” value in experiment [1] is recorded as “C (C represents an MIC of <1 μg/mL)”. Also, the “MIC … K. pneumoniae CTX-M-15 + 8 μg/mL CAZ” value in experiment [3] is given as “C (C represents an MIC of <1 μg/mL)”. In addition, the “MIC … E. cloacae P99 AmpC + 8 μg/mL CAZ” value in experiment [4] is “C (C represents an MIC of <1 μg/mL)”. Moreover, in experiment [5], the “MIC … E. coli SHV-5 + 8 μg/mL CAZ” value is on record as “C (C represents an MIC of <1 μg/mL)”.

Turning to `NCC(=O)N[C@@H](Cc1cccc(C(=O)O)c1O)B(O)O.O=CO` [Example 41, (1R)-1-(2-aminoacetylamino)-2-(2-hydroxy-3-carboxyphenyl)ethyl-1-boronic acid formate salt], the IC50 is greater than 1000 nM on Class C P99 AmpC, 100 to 1000 nM on Class A ESBL CTXM-15, 10 to 100 nM in experiment [2] and greater than 1000 nM at Class A ESBL SHV-5 (setting [6]). Further, in experiment [1], the “MIC … K. pneumoniae KPC-2 + 8 μg/mL CAZ” value is on record as “C (C represents an MIC of <1 μg/mL)”. The “MIC … K. pneumoniae CTX-M-15 + 8 μg/mL CAZ” value in experiment [3] is on record as “A (A represents an MIC >8 μg/mL)”. Moreover, in experiment [4], the “MIC … E. cloacae P99 AmpC + 8 μg/mL CAZ” value was “A (A represents an MIC >8 μg/mL)”. In addition, the “MIC … E. coli SHV-5 + 8 μg/mL CAZ” value in experiment [5] is “A (A represents an MIC >8 μg/mL)”.

`COc1ccc(OC)c(CC(=O)N[C@@H](Cc2cccc(C(=O)O)c2O)B(O)O)c1` [Example 17, (1R)-1-(2-(2,5-dimethoxyphenyl)-acetylamino)-2-(2-hydroxy-3-carboxyphenyl)ethyl-1-boronic acid]: the IC50 (on Class C P99 AmpC; on Class A ESBL CTXM-15; in experiment [2]; on Class A ESBL SHV-5 (setting [7])) was less than 10 nM each time. Also, the “MIC … K. pneumoniae CTX-M-15 + 8 μg/mL CAZ” value in experiment [3] is “C (C represents an MIC of <1 μg/mL)”. Further, the “MIC … E. cloacae P99 AmpC + 8 μg/mL CAZ” value in experiment [4] is reported as “C (C represents an MIC of <1 μg/mL)”. Further, the “MIC … E. coli SHV-5 + 8 μg/mL CAZ” value in experiment [5] is recorded as “A (A represents an MIC >8 μg/mL)”.

With `CCCCC(=O)N[C@@H](Cc1cccc(C(=O)O)c1O)B(O)O` [Example 23, (1R)-1-(pentanoylamino)-2-(2-hydroxy-3-carboxyphenyl)ethyl-1-boronic acid], the IC50 was 10 to 100 nM at Class C P99 AmpC, less than 10 nM at Class A ESBL CTXM-15, less than 10 nM in experiment [2] and 10 to 100 nM at Class A ESBL SHV-5 (setting [7]). The “MIC … K. pneumoniae KPC-2 + 8 μg/mL CAZ” value in experiment [1] is “C (C represents an MIC of <1 μg/mL)”. For the same compound, the “MIC … K. pneumoniae CTX-M-15 + 8 μg/mL CAZ” value in experiment [3] is “C (C represents an MIC of <1 μg/mL)”. Also, in experiment [4], the “MIC … E. cloacae P99 AmpC + 8 μg/mL CAZ” value was “C (C represents an MIC of <1 μg/mL)”. Also, the “MIC … E. coli SHV-5 + 8 μg/mL CAZ” value in experiment [5] is recorded as “C (C represents an MIC of <1 μg/mL)”.
